Structures can show the parent of a compound that is named as a salt.
biological target: PRMT5-MEP50 enzyme complex (Homo sapiens (Human), UniProt O14744); experiment: PRMT5 enzyme activity in vitro assay (methylation of histone H4R3, ELISA absorbance at 450 nm); type: biochemical; conditions: SAM, histone H4 peptide, room temperature 2 hours, 8 points from 10 μM to 0.128 nM
Procedure: Method for Measuring Enzyme Activity
In vitro assay: PRMT5-MEP50 enzyme complex, cofactor S-adenosylmethionine (SAM) and histone H4 peptide were reacted in vitro, and methylation of arginine (H4R3)—which is the third amino acid of histone H4—was measured in order to measure the enzyme activity of PRMT5.
Reagents: PRMT5-MEP50 enzyme complex (Catalog No. 51045), blocking buffer (52100-B), histone methyltransferase reaction buffer 2 (4×HMT assay buffer 2, Catalog No. 52170), and primary antibody (primary antibody 4-3, Catalog No. 52150) were purchased from BPS Bioscience (USA). The histone H4 peptide (1-20 amino acids) was custom made by Komabiotech (Korea) and used. S-adenosylmethionine was purchased from NEB (New England Biolabs, USA, Catalog No. B9003S). Plates for coating histone H4 peptide, washing buffer and color development reagent were purchased from the following vendors: Plate (Immobilizer™-Amino Plate, NUNC, Denmark, Catalog No. 436023), carbonate-bicarbonate buffer (Sigma-Aldrich, USA, Catalog No. C3041), washing buffer (10×TBST, Biosesang, Korea, Catalog No. T2005), TMB ELISA substrate (Abcam, UK, Catalog No. ab210902), horseradish peroxidase (HRP)-conjugated antibody (Abcam, UK, Catalog No. ab6721).
Experimental procedure: The histone H4 peptide was diluted with carbonate-bicarbonate buffer and prepared to 100 μg/mL, and then dispensed onto the plate per 100 μL and reacted at 37° C. for 1 hour. PRMT5-MEP50 enzyme complex and S-adenosylmethionine were diluted with histone methyltransferase reaction buffer to prepare 5 μg/mL and 2 μM, respectively, and then 20 μL of PRMT5-MEP50 enzyme complex and 25 μL of S-adenosylmethionine were dispensed onto the plate prepared above. 5 μL of the compound diluted with 10% dimethyl sulfoxide solution was added thereto and reacted at room temperature for 2 hours (final volume=50 μL). The concentration of the compound was diluted 1:5 from 10 μM until the lowest concentration of 0.128 nM, and 8 points were used for the test. After preparing the primary antibody by diluting 1:2000 with blocking buffer, 100 μL was added to the plate and reacted at room temperature for 1 hour. After preparing horseradish peroxidase-conjugated antibody by diluting 1:10,000 with blocking buffer, 100 μL was added to the plate and reacted at room temperature for 1 hour. 100 μL of TMB substrate was added and reacted for 3 minutes at room temperature, and 100 μL of 1 N sulfuric acid was then added to terminate the reaction. Then, the absorbance at 450 nm was measured to calculate the IC50 value of the compound. (+++: 1 to 100 nM, ++: greater than 100 to 1,000 nM, +: greater than 1,000 to 10,000 nM)

Sequence of PRMT5-MEP50 enzyme complex (O14744 2-637): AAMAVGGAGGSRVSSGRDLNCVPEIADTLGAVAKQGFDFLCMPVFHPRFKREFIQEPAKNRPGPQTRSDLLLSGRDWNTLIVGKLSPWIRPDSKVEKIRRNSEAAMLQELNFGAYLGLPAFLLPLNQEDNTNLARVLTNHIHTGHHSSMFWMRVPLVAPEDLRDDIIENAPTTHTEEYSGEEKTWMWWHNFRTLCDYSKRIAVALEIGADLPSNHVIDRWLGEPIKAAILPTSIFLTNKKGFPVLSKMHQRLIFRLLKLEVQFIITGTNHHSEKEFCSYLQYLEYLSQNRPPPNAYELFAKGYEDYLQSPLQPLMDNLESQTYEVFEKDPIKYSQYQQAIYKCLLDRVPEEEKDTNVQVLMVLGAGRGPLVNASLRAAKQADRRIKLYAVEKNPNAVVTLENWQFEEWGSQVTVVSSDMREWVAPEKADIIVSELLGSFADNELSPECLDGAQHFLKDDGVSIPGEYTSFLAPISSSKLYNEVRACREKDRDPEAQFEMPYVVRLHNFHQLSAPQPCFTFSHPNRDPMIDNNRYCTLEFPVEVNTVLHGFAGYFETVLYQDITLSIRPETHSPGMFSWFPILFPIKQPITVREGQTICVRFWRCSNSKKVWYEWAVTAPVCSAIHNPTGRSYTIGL
Sequence of PRMT5-MEP50 enzyme complex (Q9BQA1 2-342 partner): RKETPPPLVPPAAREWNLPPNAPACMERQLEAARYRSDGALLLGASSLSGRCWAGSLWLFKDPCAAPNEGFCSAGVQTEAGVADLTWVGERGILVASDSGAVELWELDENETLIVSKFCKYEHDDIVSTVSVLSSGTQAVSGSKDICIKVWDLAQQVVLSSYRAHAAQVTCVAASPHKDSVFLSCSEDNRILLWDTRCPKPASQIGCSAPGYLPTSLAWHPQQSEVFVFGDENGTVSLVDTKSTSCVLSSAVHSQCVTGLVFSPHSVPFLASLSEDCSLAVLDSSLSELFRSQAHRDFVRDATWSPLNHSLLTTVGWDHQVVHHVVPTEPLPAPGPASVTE

| IC50 | SMILES |
| --- | --- |
| 100 to 1000 nM | C[C@@H]1CCCN1Cc1ccc2c(c1)OCCN(C[C@H](O)CN1CCc3ccccc3C1)C2=O [Example 36, 4-[(2R)-3-(3,4-dihydro-1H-isoquinolin-2-yl)-2-hydroxy-propyl]-8-[[(2R)-2-methylpyrrolidin-1-yl]methyl]-2,3-dihydro-1,4-benzoxazepin-5-one] |
| 100 to 1000 nM | CN1CCN(C[C@H](O)CN2CCc3ccccc3C2)C(=O)c2ccc(OC3CCNCC3F)cc21 (stereo partly drawn) [Example 135, 4-[(2R)-3-(3,4-dihydro-1H-isoquinolin-2-yl)-2-hydroxy-propyl]-8-[(3-fluoro-4-piperidyl)oxy]-1-methyl-2,3-dihydro-1,4-benzodiazepin-5-one; dihydrochloride] |
| 100 to 1000 nM | CC(O)CN1CC[C@@H](Oc2ccc3c(c2)OCCN(C[C@H](O)CN2CCc4ccccc4C2)C3=O)[C@H](F)C1 (stereo partly drawn) [Example 254, 4-[(2R)-3-(3,4-dihydro-1H-isoquinolin-2-yl)-2-hydroxy-propyl]-8-[[(3R,4R)-3-fluoro-1-(2-hydroxypropyl)-4-piperidyl]oxy]-2-methyl-2,3-dihydro-1,4-benzoxazepin-5-one divalnet hydrochloride] |
| 100 to 1000 nM | CN1CCN(C[C@H](O)CN2CCc3ccccc3C2)C(=O)c2ccc(CCC(F)(F)F)cc21 [Example 116, 4-[(2R)-3-(3,4-dihydro-1H-isoquinolin-2-yl)-2-hydroxy-propyl]-1-methyl-8-(3,3,3-trifluoropropyl)-2,3-dihydro-1,4-benzodiazepin-5-one] |
| 100 to 1000 nM | COCCN1CC[C@@H](Oc2ccc3c(c2)OCCN(C[C@H](O)CN2CCc4ccccc4C2)C3=O)C1 [Example 272, 4-[(2R)-3-(3,4-dihydro-1H-isoquinolin-2-yl)-2-hydroxy-propyl]-8-[(3R)-1-(2-methoxyethyl)pyrrolidin-3-yl]oxy-2,3-dihydro-1,4-benzoxazepin-5-one] |
| 100 to 1000 nM | CC(=O)N1CC(Oc2ccc3c(c2)OCCN(C[C@H](O)CN2CCc4ccccc4C2)C3=O)C1 [Example 83, 8-(1-acetylazetidin-3-yl)oxy-4-[(2R)-3-(3,4-dihydro-1H-isoquinolin-2-yl)-2-hydroxy-propyl]-2,3-dihydro-1,4-benzoxazepin-5-one] |
| 100 to 1000 nM | CCN1CCC(Oc2ccc3c(c2)N(C)CCN(C[C@H](O)CN2CCc4ccccc4C2)C3=O)C(F)C1 (stereo partly drawn) [Example 136, 4-[(2R)-3-(3,4-dihydro-1H-isoquinolin-2-yl)-2-hydroxy-propyl]-8-[(1-ethyl-3-fluoro-4-piperidyl)oxy]-1-methyl-2,3-dihydro-1,4-benzodiazepin-5-one] |
| 100 to 1000 nM | CC(O)CN1CCC(Oc2ccc3c(c2)OCCN(C[C@H](O)CN2CCc4ccccc4C2)C3=O)CC1 (stereo partly drawn) [Example 212, 4-[(2R)-3-(3,4-dihydro-1H-isoquinolin-2-yl)-2-hydroxy-propyl]-8-[[1-(2-hydroxypropyl)-4-piperidyl]oxy]-2,3-dihydro-1,4-benzoxazepin-5-one] |
| 100 to 1000 nM | O=C1c2ccc(C#CCO)cc2OCCN1C[C@H](O)CN1CCc2ccccc2C1 [Example 223, 4-[(2R)-3-(3,4-dihydro-1H-isoquinolin-2-yl)-2-hydroxy-propyl]-8-(3-hydroxypro-1-pynyl)-2,3-dihydro-1,4-benzoxazepin-5-one] |
| 1 to 100 nM | CN1CCCC(COc2ccc3c(c2)N(C)CCN(C[C@H](O)CN2CCc4ccccc4C2)C3=O)C1 (stereo partly drawn) [Example 133, 4-[(2R)-3-(3,4-dihydro-1H-isoquinolin-2-yl)-2-hydroxy-propyl]-1-methyl-8-[(1-methyl-3-piperidyl)methoxy]-2,3-dihydro-1,4-benzodiazepin-5-one] |
| 1000 to 10000 nM | O=C1c2ccccc2CCCN1CC(O)CN1CCc2ccccc2C1 (centres unmarked) [Example 148, 2-[3-(3,4-dihydro-1H-isoquinolin-2-yl)-2-hydroxy-propyl]-4,5-dihydro-3H-2-benzazepin-1-one] |

The next lines start with the compound.

| SMILES | IC50 |
| --- | --- |
| COc1ccc2c(c1)CCCN(CC(O)CN1CCc3ccccc3C1)C2=O (centres unmarked) [Example 2, 2-[3-(3,4-dihydro-1H-isoquinolin-2-yl)-2-hydroxy-propyl]-7-methoxy-4,5-dihydro-3H-2-benzazepin-1-one] | 100 to 1000 nM |
| CN1CCN(C[C@H](O)CN2CCc3ccccc3C2)C(=O)c2ccc(CN3CCOCC3)cc21 [Example 115, 4-[(2R)-3-(3,4-dihydro-1H-isoquinolin-2-yl)-2-hydroxy-propyl]-1-methyl-8-(morpholinomethyl)-2,3-dihydro-1,4-benzodiazepin-5-one] | 1 to 100 nM |
| COC[C@@H]1CCCN1Cc1ccc2c(c1)OCCN(C[C@H](O)CN1CCc3ccccc3C1)C2=O [Example 49, 4-[(2R)-3-(3,4-dihydro-1H-isoquinolin-2-yl)-2-hydroxy-propyl]-8-[[(2S)-2-(methoxymethyl)pyrrolidin-1-yl]methyl]-2,3-dihydro-1,4-benzoxazepin-5-one] | 100 to 1000 nM |
| O=C1c2ccncc2OCCN1C[C@H](O)CN1CCc2ccccc2C1 [Example 152, 4-[(2R)-3-(3,4-dihydro-1H-isoquinolin-2-yl)-2-hydroxy-propyl]-2,3-dihydropyrido[4,3-f][1,4]oxazepin-5-one] | 100 to 1000 nM |
| CN1CCN(C[C@H](O)CN2CCc3ccccc3C2)C(=O)c2ccc(OC3CCN(C4CCC4)CC3)cc21 [Example 127, 8-[(1-cyclobutyl-4-piperidyl)oxy]-4-[(2R)-3-(3,4-dihydro-1H-isoquinolin-2-yl)-2-hydroxy-propyl]-1-methyl-2,3-dihydro-1,4-benzodiazepin-5-one] | 1 to 100 nM |
| O=C(c1ccc2c(c1)OCCN(C[C@H](O)CN1CCc3ccccc3C1)C2=O)C1CC1 [Example 216, 8-(cyclopropanecarbonyl)-4-[(2R)-3-(3,4-dihydro-1H-isoquinolin-2-yl)-2-hydroxy-propyl]-2,3-dihydro-1,4-benzoxazepin-5-one] | 1 to 100 nM |
| CN1CCC(COc2ccc3c(c2)OCCN(C[C@H](O)CN2CCc4ccccc4C2)C3=O)C1 (stereo partly drawn) [Example 106, 4-[(2R)-3-(3,4-dihydro-1H-isoquinolin-2-yl)-2-hydroxy-propyl]-8-[(1-methylpyrrolidin-3-yl)methoxy]-2,3-dihydro-1,4-benzoxazepin-5-one] | 100 to 1000 nM |
| CC1(O)CCN(Cc2ccc3c(c2)OCCN(C[C@H](O)CN2CCc4ccccc4C2)C3=O)C1 (stereo partly drawn) [Example 40, 4-[(2R)-3-(3,4-dihydro-1H-isoquinolin-2-yl)-2-hydroxy-propyl]-8-[(3-hydroxy-3-methyl-pyrrolidin-1-yl)methyl]-2,3-dihydro-1,4-benzoxazepin-5-one] | 1 to 100 nM |
| COCCN1CCC(Oc2ccc3c(c2)OCCN(C[C@H](O)CN2CCc4ccccc4C2)C3=O)CC1 [Example 243] | 1 to 100 nM |
| O=C1c2ccc(C(F)(F)F)cc2OCCN1C[C@H](O)CN1CCc2ccccc2C1 [Example 5, 4-[(2R)-3-(3,4-dihydro-1H-isoquinolin-2-yl)-2-hydroxy-propyl]-8-(trifluoromethyl)-2,3-dihydro-1,4-benzoxazepin-5-one] | 100 to 1000 nM |
| O=C1c2ccc(C3=CCOCC3)cc2OCCN1C[C@H](O)CN1CCc2ccccc2C1 [Example 20, 4-[(2R)-3-(3,4-dihydro-1H-isoquinolin-2-yl)-2-hydroxy-propyl]-8-(3,6-dihydro-2H-pyran-4-yl)-2,3-dihydro-1,4-benzoxazepin-5-one] | 100 to 1000 nM |
| O=C1c2ccc(CN3CCCCC3CO)cc2OCCN1C[C@H](O)CN1CCc2ccccc2C1 (stereo partly drawn) [Example 41, 4-[(2R)-3-(3,4-dihydro-1H-isoquinolin-2-yl)-2-hydroxy-propyl]-8-[[2-(hydroxymethyl)-1-piperidyl]methyl]-2,3-dihydro-1,4-benzoxazepin-5-one] | 100 to 1000 nM |
| O=C1c2ccc(OC3CN(C(=O)C4CC4)C3)cc2OCCN1C[C@H](O)CN1CCc2ccccc2C1 [Example 85, 8-[1-(cyclopropanecarbonyl)azetidin-3-yl]oxy-4-[(2R)-3-(3,4-dihydro-1H-isoquinolin-2-yl)-2-hydroxy-propyl]-2,3-dihydro-1,4-benzoxazepin-5-one] | 1 to 100 nM |
| O=C1c2ccc(-c3ccncc3)cc2OCCN1C[C@H](O)CN1CCc2ccccc2C1 [Example 225, 4-[(2R)-3-(3,4-dihydro-1H-isoquinolin-2-yl)-2-hydroxy-propyl]-8-(4-pyridyl)-2,3-dihydro-1,4-benzoxazepin-5-one] | 100 to 1000 nM |
| CC1CN(C[C@H](O)CN2CCc3ccccc3C2)C(=O)c2ccc(OC3CCN(C)CC3)nc2O1 (stereo partly drawn) [Example 144, 4-[(2R)-3-(3,4-dihydro-1H-isoquinolin-2-yl)-2-hydroxypropyl]-2-methyl-8-[(1-methyl-4-piperidyl)oxy]-2,3-dihydropyrido[3,2-f][1,4]oxazepin-5-one] | 100 to 1000 nM |
